Reference: ChEMBL document CHEMBL1123199, “Synthesis and structure-activity relationships of naftifine-related allylamine antimycotics” (1986)
In brackets after ≈: the same amount, converted by molar mass.

Assays:
Sporothrix schenckii [1] = test: Antifungal activity measured against Sporothrix schenck ii.; type: functional
Epidermophyton floccosum = test: Antifungal activity against Epidermophyton floccosum.; type: functional
Aspergillus fumigatus = test: Antifungal activity measured against Aspergillus fumigatus; type: functional
Microsporum canis = test: Antifungal activity against Microsporum canis; type: functional
Candida parapsilosis = test: Antifungal activity against Candida parapsilosis.; type: functional; conditions: Lodderomyces parapsilosis
[2] = Antifungal activity against Trichophyton mentagrophytes.; type: functional, Arthroderma benhamiae; conditions: Trichophyton benhamiae
Cavia porcellus [3] = test: In vivo antifungal activity by topical treatment of guinea pig dermatophytosis caused by Trichophyton mentagrophytes at a dose of 0.5%; type: functional
Cavia porcellus [4] = test: In vivo antifungal activity by topical treatment of guinea pig dermatophytosis caused by Trichophyton mentagrophytes at a dose of 0.1%; type: functional
Trichophyton benhamiae = test: Antifungal activity measured against Trichophyton mentagrophytes; type: functional, Arthroderma benhamiae
Cavia porcellus [5] = test: In vivo antifungal activity by topical treatment of guinea pig dermatophytosis caused by Trichophyton mentagrophytes at a dose of 2%; type: functional
Sporothrix schenckii [6] = test: Antifungal activity was measured against Sporothrix schenck ii.; type: functional
Cavia porcellus [7] = test: In vivo antifungal activity (% cure) was determined by topical treatment of guinea pig dermatophytosis caused by Trichophyton mentagrophytes at a dose of […]; type: functional
Cavia porcellus [8] = test: In vivo antifungal activity (% cure) was determined by topical treatment of guinea pig dermatophytosis caused by Trichophyton mentagrophytes at a dose of 2%; type: functional
Cavia porcellus [9] = test: In vivo antifungal activity (% cure) was determined by topical treatment of guinea pig dermatophytosis caused by Trichophyton mentagrophytes at a dose of 0.5%; type: functional

CN(C/C=C/c1ccccc1)Cc1ccc2ccccc2c1
MIC (Sporothrix schenckii [1]): 100 µg/mL (≈ 348 µM) | MIC (Epidermophyton floccosum): 25 µg/mL (≈ 87 µM) | MIC (Aspergillus fumigatus): > 100 µg/mL | MIC (Microsporum canis): 50 µg/mL (≈ 174 µM) | MIC (Candida parapsilosis): > 100 µg/mL | MIC [2]: 25 µg/mL (≈ 87 µM)

CN(C/C=C/c1ccccc1)Cc1ccc2c(c1)C1CCC2C1 (centres undefined)
MIC (Sporothrix schenckii [1]): 100 µg/mL (≈ 330 µM) | MIC (Epidermophyton floccosum): 12.5 µg/mL (≈ 41.2 µM) | MIC (Aspergillus fumigatus): > 100 µg/mL | MIC (Microsporum canis): 50 µg/mL (≈ 165 µM) | MIC (Candida parapsilosis): > 100 µg/mL | MIC [2]: 6.2 µg/mL (≈ 20.4 µM)

CN(C/C=C/c1cccs1)Cc1cccc2ccccc12
MIC (Sporothrix schenckii [1]): 3.1 µg/mL (≈ 10.6 µM) | MIC (Epidermophyton floccosum): 0.2 µg/mL (≈ 0.682 µM) | Activity (Cavia porcellus [3]): 56% | MIC (Aspergillus fumigatus): 100 µg/mL (≈ 341 µM) | MIC (Microsporum canis): 0.2 µg/mL (≈ 0.682 µM) | Activity (Cavia porcellus [4]): 13% | MIC (Trichophyton benhamiae): 0.1 µg/mL (≈ 0.341 µM) | MIC (Candida parapsilosis): 6.2 µg/mL (≈ 21.1 µM) | Activity (Cavia porcellus [5]): 96%

CCOC(=O)/C=C/C=C/CN(C)Cc1cccc2ccccc12
MIC (Epidermophyton floccosum): 3.1 µg/mL (≈ 10 µM) | MIC (Sporothrix schenckii [6]): 100 µg/mL (≈ 323 µM) | MIC (Aspergillus fumigatus): > 100 µg/mL | MIC (Microsporum canis): 3.1 µg/mL (≈ 10 µM) | MIC (Trichophyton benhamiae): < 1.6 µg/mL | MIC (Candida parapsilosis): > 100 µg/mL

CN(C/C=C/c1ccc(Cl)cc1)Cc1cccc2ccccc12
MIC (Sporothrix schenckii [1]): 3.1 µg/mL (≈ 9.63 µM) | MIC (Epidermophyton floccosum): 0.4 µg/mL (≈ 1.24 µM) | Activity (Cavia porcellus [3]): 25% | MIC (Aspergillus fumigatus): > 100 µg/mL | MIC (Microsporum canis): 0.4 µg/mL (≈ 1.24 µM) | Activity (Cavia porcellus [4]): 0% | MIC (Trichophyton benhamiae): 0.2 µg/mL (≈ 0.621 µM) | MIC (Candida parapsilosis): 100 µg/mL (≈ 311 µM) | Activity (Cavia porcellus [5]): 44%

CN(C/C=C/c1ccccc1)CC1=CCc2ccccc21
MIC (Sporothrix schenckii [1]): > 100 µg/mL | MIC (Epidermophyton floccosum): 12.5 µg/mL (≈ 45.4 µM) | MIC (Aspergillus fumigatus): > 100 µg/mL | MIC (Microsporum canis): 3.1 µg/mL (≈ 11.3 µM) | MIC (Candida parapsilosis): > 100 µg/mL | MIC [2]: 1.6 µg/mL (≈ 5.81 µM)

CN(C/C=C/C1=CCCC1)Cc1cccc2ccccc12
MIC (Sporothrix schenckii [1]): 3.1 µg/mL (≈ 11.2 µM) | MIC (Epidermophyton floccosum): 0.2 µg/mL (≈ 0.721 µM) | Activity (Cavia porcellus [3]): 91% | MIC (Aspergillus fumigatus): 50 µg/mL (≈ 180 µM) | MIC (Microsporum canis): 0.2 µg/mL (≈ 0.721 µM) | Activity (Cavia porcellus [4]): 30% | MIC (Trichophyton benhamiae): 0.1 µg/mL (≈ 0.36 µM) | MIC (Candida parapsilosis): 6.2 µg/mL (≈ 22.3 µM) | Activity (Cavia porcellus [5]): 100%

COc1ccc2c(CN(C)C/C=C/c3ccccc3)cccc2c1
MIC (Sporothrix schenckii [1]): 25 µg/mL (≈ 78.8 µM) | MIC (Epidermophyton floccosum): 12.5 µg/mL (≈ 39.4 µM) | MIC (Aspergillus fumigatus): > 100 µg/mL | MIC (Microsporum canis): 12.5 µg/mL (≈ 39.4 µM) | MIC (Candida parapsilosis): > 100 µg/mL | MIC [2]: 1.6 µg/mL (≈ 5.04 µM)

CN(C/C=C/c1cccc2ccccc12)Cc1ccccc1
MIC (Sporothrix schenckii [1]): 100 µg/mL (≈ 348 µM) | MIC (Epidermophyton floccosum): 100 µg/mL (≈ 348 µM) | MIC (Aspergillus fumigatus): > 100 µg/mL | MIC (Microsporum canis): 100 µg/mL (≈ 348 µM) | MIC (Candida parapsilosis): > 100 µg/mL | MIC [2]: 100 µg/mL (≈ 348 µM)

CN(C/C=C/c1ccccc1)Cc1cccc2c1CCCC2
MIC (Sporothrix schenckii [1]): 3.1 µg/mL (≈ 10.6 µM) | MIC (Epidermophyton floccosum): 0.8 µg/mL (≈ 2.75 µM) | Activity (Cavia porcellus [3]): 22% | MIC (Aspergillus fumigatus): > 100 µg/mL | MIC (Microsporum canis): 0.8 µg/mL (≈ 2.75 µM) | Activity (Cavia porcellus [4]): 0% | MIC (Trichophyton benhamiae): 0.4 µg/mL (≈ 1.37 µM) | MIC (Candida parapsilosis): 50 µg/mL (≈ 172 µM) | Activity (Cavia porcellus [5]): 50%

CN(C/C=C/c1ccccc1)c1cccc2ccccc12
MIC (Sporothrix schenckii [1]): > 100 µg/mL | MIC (Epidermophyton floccosum): > 100 µg/mL | MIC (Aspergillus fumigatus): > 100 µg/mL | MIC (Microsporum canis): > 100 µg/mL | MIC (Candida parapsilosis): > 100 µg/mL | MIC [2]: 6.2 µg/mL (≈ 22.7 µM)

CN(C/C=C/c1ccccc1)Cc1ccc(Cl)c2ccccc12
MIC (Sporothrix schenckii [1]): 3.1 µg/mL (≈ 9.63 µM) | MIC (Epidermophyton floccosum): 0.1 µg/mL (≈ 0.311 µM) | Activity (Cavia porcellus [3]): 44% | MIC (Aspergillus fumigatus): > 100 µg/mL | MIC (Microsporum canis): 0.1 µg/mL (≈ 0.311 µM) | Activity (Cavia porcellus [4]): 18% | MIC (Candida parapsilosis): 1.6 µg/mL (≈ 4.97 µM) | MIC [2]: 0.05 µg/mL (≈ 0.155 µM) | Activity (Cavia porcellus [5]): 88%

CN(C/C=C/C(=O)O)Cc1cccc2ccccc12
MIC (Sporothrix schenckii [1]): < 100 µg/mL | MIC (Epidermophyton floccosum): < 100 µg/mL | MIC (Aspergillus fumigatus): < 100 µg/mL | MIC (Microsporum canis): < 100 µg/mL | MIC (Candida parapsilosis): < 100 µg/mL | MIC [2]: < 100 µg/mL

CC(c1cccc2ccccc12)N(C)C/C=C/c1ccccc1 (centres undefined)
MIC (Sporothrix schenckii [1]): 3.1 µg/mL (≈ 10.3 µM) | MIC (Epidermophyton floccosum): 0.2 µg/mL (≈ 0.663 µM) | Activity (Cavia porcellus [3]): 75% | MIC (Aspergillus fumigatus): 50 µg/mL (≈ 166 µM) | MIC (Microsporum canis): 0.4 µg/mL (≈ 1.33 µM) | Activity (Cavia porcellus [4]): 15% | MIC (Trichophyton benhamiae): 0.1 µg/mL (≈ 0.332 µM) | MIC (Candida parapsilosis): 3.1 µg/mL (≈ 10.3 µM) | Activity (Cavia porcellus [5]): 100%

CCCC/C=C/C/C=C/CN(C)Cc1cccc2ccccc12
MIC (Sporothrix schenckii [1]): 3.1 µg/mL (≈ 10.1 µM) | MIC (Epidermophyton floccosum): 0.2 µg/mL (≈ 0.65 µM) | Activity (Cavia porcellus [3]): 69% | Activity (Cavia porcellus [7]): 40% | MIC (Aspergillus fumigatus): 25 µg/mL (≈ 81.3 µM) | MIC (Microsporum canis): 0.1 µg/mL (≈ 0.325 µM) | MIC (Trichophyton benhamiae): 0.05 µg/mL (≈ 0.163 µM) | MIC (Candida parapsilosis): 1.6 µg/mL (≈ 5.2 µM) | Activity (Cavia porcellus [5]): 100%

CN(C/C=C/C(=O)OCc1ccccc1)Cc1cccc2ccccc12
MIC (Sporothrix schenckii [1]): 12.5 µg/mL (≈ 36.2 µM) | Activity (Cavia porcellus [8]): 8% | MIC (Epidermophyton floccosum): < 1.6 µg/mL | MIC (Aspergillus fumigatus): > 100 µg/mL | MIC (Microsporum canis): < 1.6 µg/mL | Activity (Cavia porcellus [4]): 0% | MIC (Trichophyton benhamiae): < 1.6 µg/mL | MIC (Candida parapsilosis): > 100 µg/mL | Activity (Cavia porcellus [9]): 0%

CN(C/C=C/c1ccccn1)Cc1cccc2ccccc12
MIC (Sporothrix schenckii [1]): 100 µg/mL (≈ 347 µM) | MIC (Epidermophyton floccosum): 12.5 µg/mL (≈ 43.3 µM) | Activity (Cavia porcellus [3]): 0% | MIC (Aspergillus fumigatus): > 100 µg/mL | MIC (Microsporum canis): 12.5 µg/mL (≈ 43.3 µM) | Activity (Cavia porcellus [4]): 0% | MIC (Trichophyton benhamiae): < 1.6 µg/mL | MIC (Candida parapsilosis): > 100 µg/mL | Activity (Cavia porcellus [5]): 7%

CN(CC/C=C/c1ccccc1)Cc1cccc2ccccc12
MIC (Sporothrix schenckii [1]): 100 µg/mL (≈ 332 µM) | MIC (Epidermophyton floccosum): 6.2 µg/mL (≈ 20.6 µM) | MIC (Aspergillus fumigatus): 100 µg/mL (≈ 332 µM) | MIC (Microsporum canis): 3.1 µg/mL (≈ 10.3 µM) | MIC (Candida parapsilosis): > 100 µg/mL | MIC [2]: 3.1 µg/mL (≈ 10.3 µM)

CN(C/C=C\c1ccccc1)Cc1cccc2ccccc12
MIC (Sporothrix schenckii [1]): 3.1 µg/mL (≈ 10.8 µM) | MIC (Epidermophyton floccosum): 0.2 µg/mL (≈ 0.696 µM) | Activity (Cavia porcellus [3]): 47% | MIC (Aspergillus fumigatus): 25 µg/mL (≈ 87 µM) | MIC (Microsporum canis): 0.2 µg/mL (≈ 0.696 µM) | Activity (Cavia porcellus [4]): 34% | MIC (Trichophyton benhamiae): 0.1 µg/mL (≈ 0.348 µM) | MIC (Candida parapsilosis): 3.1 µg/mL (≈ 10.8 µM) | Activity (Cavia porcellus [5]): 100%
